# Source: a melting point compilation (Tetko et al.; mined from patent text by program, amines drawn as free bases though some values may be those of a salt)
row,Structure (SMILES),melting point
1,NCC1(c2cccc(C(F)(F)F)c2)CCN(C(=O)CN2CCN(c3cnccn3)CC2)CC1,152 to 153 °C
2,CC1N(CCCCCl)C(=O)C(C)(C)S1(=O)=O (stereo unspecified),71 to 73 °C
3,Fc1ccc(C2=NOC(c3cc(Cl)cc(Cl)c3)(C(F)(F)F)C2)cc1Br (stereo unspecified),132 °C
4,CCCc1c(OCCCOc2ccc3c(c2CCC)OC(CCC(=O)O)C=C3)ccc(C(C)=O)c1O (stereo unspecified),60 to 62 °C
5,CCOC(=O)c1ncn2c1CNC(=O)c1ccccc1-2,248 to 250 °C
6,COc1cc2c(cc1C(F)(F)F)N(C(=O)Nc1cc(-c3ccccc3)cc(-c3cccnc3)c1)CC2,150 to 151 °C
7,Cc1c(-c2ccc3c(c2)NC(=O)CO3)nc2ccccn12,280 to 282 °C
8,Fc1ccccc1C1=NCc2c[nH]cc2-c2ccc(Cl)cc21,197 to 199 °C
9,CNCC(O)c1cc(OC)c(O)c(OC)c1 (stereo unspecified),175 °C
10,ClC(Cl)(Cl)c1nsc(N2CCCC2)n1,106 to 107 °C
11,CCOC(=O)c1ccc(C(C(N)=O)C(Cc2ccccc2)c2ccccc2N2CCCCC2)cc1 (stereo unspecified),161 to 162 °C
12,COC(=O)C(C)Oc1ccc(N(C)c2nc3cc(Cl)ccc3s2)cc1 (stereo unspecified),120 °C
13,COCCN1C(=O)CCCc2cc(N)ccc21,134 to 135 °C
14,CC(=O)NC[C@H]1CN(c2ccc(C(=O)c3cnc4ccc(Cl)cn34)cc2)C(=O)O1,234 to 235 °C
15,CC(C)C1NC(=O)CN1C(=O)CNC(=O)OCc1ccccc1 (stereo unspecified),137 to 139 °C
16,COc1ccc(C2(C#Cc3csc(C(=O)O)c3)CCC(=O)CC2)cc1OC1CCCC1,80 to 82 °C
17,Cc1c(N(C)C)c(F)cc2c(=O)[nH]c(=O)n(C3CC3)c12,238 to 239 °C
18,CCCCCc1c(C(C)C)nc(C(C)C)c(CN(C)C)c1-c1ccc(F)cc1,69 to 71 °C
19,CCCC(C(=O)OCC)n1cnc(C(N)=O)c1 (stereo unspecified),95 °C
20,COCc1ccc2c(c1S(N)(=O)=O)S(=O)(=O)C(C)C2 (stereo unspecified),115 °C
21,CCOC(=O)c1cc2c(nc(C)n2C)c(O)c1CCC(O)c1ccccc1 (stereo unspecified),193 to 195 °C
22,c1ccc(C2=N[C@@H](c3ccccc3)[C@H](N3CCOCC3)S2)cc1 (relative stereo),92 to 94 °C
23,CN(Cc1ccc(COC(=O)NC(Cc2ccccc2)C(=O)O)cc1)c1ccccc1 (stereo unspecified),69.6 to 70.1 °C
24,CCOc1ccc(-n2c(C(C)N(Cc3cccnc3)C(=O)OC(C)(C)C)nc3ccccc3c2=O)cc1 (stereo unspecified),67.5 °C
25,COc1ccc(-c2cc(=Nc3c(C)cc(C)cc3C)n(C)c(NNC=O)n2)cc1OC,136 to 143 °C
26,CCCCCCCCCCc1cnc(-c2ccc3c(c2)C(=O)C(CCCCCCCC)C3)nc1 (stereo unspecified),83 °C

row,Structure (SMILES),melting point
1,CNn1cc(C(=O)O)c(=O)c2ccc(C)nc21,215 to 217 °C
2,COc1ccc(Nc2cccc3c2C(=O)N(C2CCC(=O)NC2=O)C3=O)cc1O (stereo unspecified),225 to 227 °C
3,Cc1cnc2c(N)ccc(C)c2c1Cl,120 to 122 °C
4,CCCOC(=O)C1Oc2ccccc2Cc2ccccc2O1,82 to 85 °C
5,COC(=O)c1cc(C)sc1Nc1ccc(F)cc1[N+](=O)[O-],149 to 151 °C
6,O=C(NN=Cc1ccnc2ccccc12)c1ccc(Cl)cc1,233 °C
7,O=S(=O)(c1ccc(Cl)cc1)C(C/C=C\CO)c1cc(F)ccc1F (stereo unspecified),60 to 63 °C
8,COc1cc(OC)c2c(=O)[nH]c(-c3ccc(OC)c(-c4ccc(C(=O)N(C)C)cc4Cl)c3)nc2c1,> 300 °C
9,FC(F)(F)c1cc(Br)c(OCc2ccccc2)c(OCc2ccccc2)c1,79 to 80 °C
10,COc1ccc(Cn2c(C(=O)O)c(-c3ccc4c(c3)OCO4)c3ccccc32)c(OCC(=O)O)c1,195 to 196 °C
11,CON(C)Cc1nc2c(N)nc3ccccc3c2n1CC1(O)CCC1,219 to 221 °C
12,CCCCc1nc2c(N)nc3ccc(OCCC4CCNCC4)cc3c2n1C,210 to 212 °C
13,O=C1CCC(N2C(=O)c3cccc(NC(=O)CCCCCNC(=O)OCc4ccccc4)c3C2=O)C(=O)N1 (stereo unspecified),122 to 125 °C
14,O=C(c1ccccc1)C1CCN(CCS(=O)c2ccc3[nH]c(=O)oc3c2)CC1 (stereo unspecified),68 to 72 °C
15,CCCn1c(=O)c2c(nn3cc[nH]c23)n(Cc2ccccc2)c1=O,290 to 292 °C
16,ClC(=NNc1ccc(Br)cc1)c1ccc(Cl)cc1,142 to 144 °C
17,CCSc1nc2c(C(=O)OCOC)sc(C)c2[nH]1,128 to 130 °C
18,O=C(NCCc1ccccc1F)[C@@H]1Cc2ccccc2N1,135 °C
19,CCOC(=O)c1c(-c2ccc(F)cc2)c2ccsc2c(=O)n1C,145 to 147 °C
20,CC(C)(C)OC(=O)NC1CCCOCC=CC2CC2(C(=O)NS(=O)(=O)C2CC2)NC(=O)C2CC(OC(=O)c3ccc(-c4ccccc4)cc3)CN2C1=O (stereo unspecified),160 to 162 °C
21,Cc1ccc(-c2csc(NC(=O)c3nnn[nH]3)n2)cc1,250 to 253 °C
22,Cc1cccc(C)c1NC1=NCCN1,155 to 156 °C
23,CCOC(CNC(=S)Nc1ccnn1C)OCC,148 to 149 °C
24,CCOc1ccc2c(c1)n(C(C)(C)CC(C)(C)C)c(=O)n2S(=O)(=O)c1ccc(NC(=O)N(CC)CC)cc1OC,225 °C
25,CCc1cc(O)nc(C)n1,118 to 119 °C
26,C[C@H]1N(C(=O)c2ccc(C(F)(F)F)cc2)CC(O)O[C@@]1(Cn1cncn1)c1ccc(Cl)cc1Cl (relative stereo),199 to 200 °C

row,Structure (SMILES),melting point
1,CCOC(=O)c1ccc(NCCc2cccs2)cc1,93 to 96 °C
2,CCCCCCOc1ccc(-c2cc(C=O)ccc2C=O)cc1,44.5 to 45.5 °C
3,COC(CCCNC(=O)CCCCC(=O)NCCCC(OC)OC)OC,73 to 75 °C
4,Cc1nsc(OCC(Cl)(Cl)Cl)c1S(=O)(=O)Cl,71 to 74 °C
5,CC1C[C@H]2[C@@H]3CCC4=CC(=O)CC[C@]4(CS)[C@H]3CC[C@]2(C)C1=O (stereo partly specified),130 to 132 °C
6,Cc1cc(C)n2nc(S(=O)(=O)Nc3ccccc3Cl)nc2n1,188 to 190 °C
7,CCCCCCCCCCCCCCCCNC(=O)c1cc(OCCBr)c2ccccc2c1O,91 to 93 °C
8,CCCCCCCNC(=O)Nc1ccccc1C(=O)NC1CCCN(C(c2ccccc2)c2ccccc2)C1 (stereo unspecified),112 °C
9,COCCOCc1nn(C)c2c1N=C(c1ccc(-n3c(C)nc4cnccc43)cc1)CC(=O)N2C,142 to 144 °C
10,C/C(=C\c1ccc(C(=O)OCc2ccccc2)cc1)c1ccc2c(c1)C(C)(C)CCC2(C)C,113 to 114 °C
11,NC1C(O)C(CO)OC1n1ccc(=O)[nH]c1=O (stereo unspecified),197 to 199 °C
12,Cc1nc(NCc2ccccc2)sc1-c1ccnc(Nc2ccc(N3CCOCC3)cc2)n1,180 to 183 °C
13,COC(=O)Nc1nc(-c2ccccc2)c(-c2nc3ccccc3c(=O)n2-c2ccccc2)s1,> 275 °C
14,COC(=O)c1nc2cc(OC)c(OC)cc2n(C)c1=O,222 °C
15,Cc1ccc2oc(=O)c(-c3ccccc3)c(OCCN3CCOCC3)c2c1,96 °C
16,Cc1nc(-c2cccc(NC(=O)N3CCc4c(cnc5[nH]nc(Br)c45)C3)c2)no1,> 152 °C
17,COC(=O)NCc1cccc(Br)c1,41 to 44 °C
18,CCCCCCCCC(SCCCCCC)C(=O)NC1(OC)C=C(C)C=CN1 (stereo unspecified),83 to 85 °C
19,O=C(O)c1cc(=O)c2cc(OC(F)(F)F)ccc2o1,192 to 194 °C
20,O=C(OCc1ccccc1)c1cccc(OCc2ccccc2)c1[N+](=O)[O-],81.7 to 84.7 °C
21,CCON=C(CC)C1=C(O)CC(c2c(C)c(C)c3c(c2Cl)CC(C)(CC)C3)CC1=O (stereo unspecified),93 to 94 °C
22,CCc1cc(Nc2ccccc2)cc(CC)c1N,42 to 44 °C
23,COC(=O)C1OC(c2cc(-c3ncc(C(F)(F)F)cc3Cl)ccc2Cl)OC1C(=O)OC (stereo unspecified),48 to 53 °C
24,Cc1nc(/C=C/c2ccc3ccccc3n2)cc(-n2nc(C)nc2C)n1,153 to 155 °C
25,CC(C)N(C)C(=O)C(Cc1ccc(C=O)cc1)NC(=O)OC(C)(C)C (stereo unspecified),122 °C
26,CCOC(=O)CCCCSc1nc2ccccc2[nH]1,88 to 90 °C

row,Structure (SMILES),melting point
1,CCCCc1nc2c(N)nc(C)c(C)c2n1CCCCNS(=O)(=O)N(C)C,130 to 131 °C
2,CC1(C)Oc2ccc(C#N)cc2[C@@H](NC2=C(F)C(=O)CC2)[C@@H]1O (relative stereo),250 to 252 °C
3,CCCCn1ccc(-c2ccc(Oc3cc(C)nc(C)c3)c(F)c2)c(C#N)c1=O,205 °C
4,COC(=O)c1cc2c(nc1C(=O)OC)SCC2,102 to 104 °C
5,O=C1Cc2cc(NC(=O)C(=O)N3CCC(Cc4cccc(F)c4)CC3)ccc2N1,182 to 184 °C
6,COc1ncccc1-c1cncc(OC2SCC(O)C(O)C2O)c1 (stereo unspecified),209 °C
7,CS(=O)(=O)c1ccc(-c2cnn(CC(F)(F)F)c(=O)c2N2CCCCC2)cc1,160 to 161 °C
8,CCc1[nH]n(C2CCCC2)c2nc(COS(C)(=O)=O)nc(=O)c1-2,138 to 140 °C
9,Cc1cn(N=Cc2cccnc2)c(=O)[nH]1,200 to 202 °C
10,Cc1nc2c3c(ccn2c1C)C(=O)CC(c1ccsc1)N3 (stereo unspecified),176 to 177 °C
11,O=S(=O)(/C=C/c1ccc(Cl)cc1)Nc1cccc(Cl)c1,118 to 120 °C
12,O=C(NCCO)c1cnc(-c2ccccc2)s1,149 to 152 °C
13,CC1C(C)(C)C2CCc3cnoc3C2C1(C)C (stereo unspecified),82.3 °C
14,CCNc1cc([N+](=O)[O-])ccc1OCCOC,83 to 87 °C
15,COc1ccc(C(=O)NCc2c(C=O)cc(C)n2CCNC(C)=O)cc1OC,165 to 167 °C
16,O=C(O)COc1ccc2c(-c3ccccc3F)noc2c1Cl,188 to 189 °C
17,CCOCCOC(=O)C(=O)Nc1nc(-c2ccccc2)cs1,109 to 110 °C
18,Cn1c(C(F)(F)F)ccc(-c2ccc(Cl)cc2F)c1=O,103 to 104 °C
19,CCOC(=O)c1cc2c(C)ccc3c2n1CCO3,101 to 102 °C
20,CC(C)(Cl)C(CCNC(=O)C(F)(F)F)N=O (stereo unspecified),91 to 93 °C
21,COC(=C1C2CC3CC(C2)CC1C3)c1cc(OC)cc(OC(=O)C(C)(C)C)c1,159 °C
22,Clc1cc(Cl)c2oc(-c3ccc(C=Cc4ccc(-c5ccccc5)cc4)cc3)cc2c1,258 to 260 °C
23,CC(CO)c1ccc2nc(-c3ccccc3)oc2c1 (stereo unspecified),98 °C
